Reference: ChEMBL document CHEMBL5046254, “Mycobactin Analogues with Excellent Pharmacokinetic Profile Demonstrate Potent Antitubercular Specific Activity and Exceptional Efflux Pump Inhibition” (J Med Chem, 2022)
≈ marks a conversion by molar mass, not a printed value.

How the values were obtained:
[1] = test system: Mycobacterium tuberculosis; assay: microbe, parasite or virus in culture; settings: H37Rv ATCC 27294, 192 h
[2] = test system: Mycobacterium tuberculosis; assay: microbe, parasite or virus in culture; settings: H37Rv ATCC 27294, 192 h; remark: listed apart in the source
[3] = test system: Mycolicibacterium smegmatis; assay: Antitubercular activity against Mycobacterium smegmatis mc2155 ATCC 700084 cultured in GAST-Fe media incubated for 24 hrs by resazurin microtiter assay; assay type: functional
[4] = test system: Mycolicibacterium smegmatis; assay: Antitubercular activity against Mycobacterium smegmatis mc2155 ATCC 700084 cultured in GAST media incubated for 24 hrs by resazurin microtiter assay; assay type: functional

`CC(=O)N1N=C(c2ccccc2O)CC1c1ccccc1Br` (stereo not given) was tested, and the MIC90 [1] was over 256 µg/mL, the MIC90 [2] was over 256 µg/mL and the MIC90 [3] was over 256 µg/mL. For the same compound, the MIC90 [4] was over 256 µg/mL.

`NC(=S)N1N=C(c2ccccc2O)CC1c1ccc(Cl)cc1` (stereo not given) gave an MIC90 [1] of 4 µg/mL (≈ 12.1 µM), an MIC90 [2] of 8 µg/mL (≈ 24.1 µM) and an MIC90 [3] of 256 µg/mL (≈ 771 µM). The MIC90 [4] was 128 µg/mL (≈ 386 µM).

`CC(=O)N1N=C(c2ccccc2O)CC1c1ccc(Br)cc1` (stereo not given) gave an MIC90 [1] of over 256 µg/mL, an MIC90 [2] of over 256 µg/mL and an MIC90 [3] of over 256 µg/mL. The MIC90 [4] was over 256 µg/mL.

`CC(=O)N1N=C(c2ccccc2O)CC1c1ccc(Cl)cc1` (stereo not given) showed an MIC90 [1] of over 256 µg/mL, an MIC90 [2] of over 256 µg/mL and an MIC90 [3] of 256 µg/mL (≈ 813 µM). It also gave an MIC90 [4] of over 256 µg/mL.

Compound `COc1ccccc1C1CC(c2ccccc2O)=NN1C(N)=S` (stereo not given) has an MIC90 [1] of 16 µg/mL (≈ 48.9 µM), an MIC90 [2] of 16 µg/mL (≈ 48.9 µM) and an MIC90 [3] of 256 µg/mL (≈ 782 µM). The MIC90 [4] was 256 µg/mL (≈ 782 µM).

`CO[C@H]1/C=C/O[C@@]2(C)Oc3c(C)c(O)c4c(O)c(c(/C=N/N5CCN(C)CC5)c(O)c4c3C2=O)NC(=O)/C(C)=C\C=C\[C@H](C)[C@H](O)[C@@H](C)[C@@H](O)[C@@H](C)[C@H](OC(C)=O)[C@@H]1C` [RIFAMPIN] was tested, and the MIC90 [1] was 0.03 µg/mL (≈ 0.0365 µM), the MIC90 [2] was 0.005 µg/mL (≈ 0.00608 µM) and the MIC90 [3] was 8 µg/mL (≈ 9.72 µM). It also gave an MIC90 [4] of 8 µg/mL (≈ 9.72 µM).

For `CC(=O)N1N=C(c2ccccc2O)CC1c1ccccc1F` (stereo not given), the MIC90 [1] was over 256 µg/mL, the MIC90 [2] was over 256 µg/mL and the MIC90 [3] was 256 µg/mL (≈ 858 µM). For the same compound, the MIC90 [4] was 256 µg/mL (≈ 858 µM).

Work on `COc1cccc(C2CC(c3ccccc3O)=NN2C(C)=O)c1` (stereo not given) yielded an MIC90 [1] of over 256 µg/mL, an MIC90 [2] of over 256 µg/mL and an MIC90 [3] of 256 µg/mL (≈ 825 µM). The MIC90 [4] was over 256 µg/mL.

`COc1ccc(C2CC(c3ccccc3O)=NN2C(C)=O)cc1` (stereo not given) showed an MIC90 [1] of over 256 µg/mL, an MIC90 [2] of over 256 µg/mL and an MIC90 [3] of over 256 µg/mL. For the same compound, the MIC90 [4] was over 256 µg/mL.

In the case of `COc1ccc(C2CC(c3ccccc3O)=NN2C(N)=S)cc1O` (stereo not given), the MIC90 [1] is reported as 8 µg/mL (≈ 23.3 µM), the MIC90 [2] is reported as 16 µg/mL (≈ 46.6 µM) and the MIC90 [3] is reported as 128 µg/mL (≈ 373 µM). The MIC90 [4] was 128 µg/mL (≈ 373 µM).

In the case of `Oc1ccccc1C1=NNC(c2ccccc2O)C1` (stereo not given), the MIC90 [1] is reported as 64 µg/mL (≈ 252 µM), the MIC90 [2] is reported as over 256 µg/mL and the MIC90 [3] is reported as 64 µg/mL (≈ 252 µM). For the same compound, the MIC90 [4] was 64 µg/mL (≈ 252 µM).

Work on `CC(=O)N1N=C(c2ccccc2O)CC1c1cccc(Cl)c1` (stereo not given) yielded an MIC90 [1] of 256 µg/mL (≈ 813 µM), an MIC90 [2] of 256 µg/mL (≈ 813 µM) and an MIC90 [3] of 128 µg/mL (≈ 407 µM). It also gave an MIC90 [4] of 128 µg/mL (≈ 407 µM).

Work on `Oc1ccccc1C1=NNC(c2ccccc2F)C1` (stereo not given) yielded an MIC90 [1] of 16 µg/mL (≈ 62.4 µM), an MIC90 [2] of 64 µg/mL (≈ 250 µM) and an MIC90 [3] of 64 µg/mL (≈ 250 µM). It also gave an MIC90 [4] of 8 µg/mL (≈ 31.2 µM).

`NC(=S)N1N=C(c2ccccc2O)CC1c1ccccc1Cl` (stereo not given) showed an MIC90 [1] of 8 µg/mL (≈ 24.1 µM), an MIC90 [2] of 16 µg/mL (≈ 48.2 µM) and an MIC90 [3] of 256 µg/mL (≈ 771 µM). For the same compound, the MIC90 [4] was 256 µg/mL (≈ 771 µM).

Compound `NC(=S)N1N=C(c2ccccc2O)CC1c1cccc(O)c1` (stereo not given) has an MIC90 [1] of 16 µg/mL (≈ 51.1 µM), an MIC90 [2] of 128 µg/mL (≈ 408 µM) and an MIC90 [3] of 256 µg/mL (≈ 817 µM). For the same compound, the MIC90 [4] was 128 µg/mL (≈ 408 µM).

With `COc1ccc(C2CC(c3ccccc3O)=NN2C(C)=O)cc1O` (stereo not given) the MIC90 [1] was over 256 µg/mL, the MIC90 [2] was over 256 µg/mL and the MIC90 [3] was over 256 µg/mL. The MIC90 [4] was over 256 µg/mL.

With `CC(=O)N1N=C(c2ccccc2O)CC1c1ccc(C)cc1` (stereo not given) the MIC90 [1] was over 256 µg/mL, the MIC90 [2] was over 256 µg/mL and the MIC90 [3] was 256 µg/mL (≈ 870 µM). The MIC90 [4] was over 256 µg/mL.

For `Oc1ccccc1C1=NNC(c2ccccc2Br)C1` (stereo not given), the MIC90 [1] was 16 µg/mL (≈ 50.4 µM), the MIC90 [2] was 32 µg/mL (≈ 101 µM) and the MIC90 [3] was 64 µg/mL (≈ 202 µM). For the same compound, the MIC90 [4] was 8 µg/mL (≈ 25.2 µM).

Work on `NNC(=O)c1ccncc1` [ISONIAZID] yielded an MIC90 [1] of 0.03 µg/mL (≈ 0.219 µM), an MIC90 [2] of 0.005 µg/mL (≈ 0.0365 µM) and an MIC90 [3] of 2 µg/mL (≈ 14.6 µM). It also gave an MIC90 [4] of 2 µg/mL (≈ 14.6 µM).

With `Oc1ccccc1C1=NNC(c2cccc(F)c2)C1` (stereo not given) the MIC90 [1] was 64 µg/mL (≈ 250 µM), the MIC90 [2] was 256 µg/mL (≈ 999 µM) and the MIC90 [3] was 64 µg/mL (≈ 250 µM). For the same compound, the MIC90 [4] was 16 µg/mL (≈ 62.4 µM).

Work on `CC(=O)N1N=C(c2ccccc2O)CC1c1cccc(Br)c1` (stereo not given) yielded an MIC90 [1] of over 256 µg/mL, an MIC90 [2] of over 256 µg/mL and an MIC90 [3] of 256 µg/mL (≈ 713 µM). The MIC90 [4] was over 256 µg/mL.

`COc1ccc(C2CC(c3ccccc3O)=NN2)cc1` (stereo not given) gave an MIC90 [1] of 32 µg/mL (≈ 119 µM), an MIC90 [2] of 128 µg/mL (≈ 477 µM) and an MIC90 [3] of 128 µg/mL (≈ 477 µM). For the same compound, the MIC90 [4] was 64 µg/mL (≈ 239 µM).

Work on `Oc1ccccc1C1=NNC(c2ccc(F)cc2)C1` (stereo not given) yielded an MIC90 [1] of 16 µg/mL (≈ 62.4 µM), an MIC90 [2] of 128 µg/mL (≈ 499 µM) and an MIC90 [3] of 64 µg/mL (≈ 250 µM). The MIC90 [4] was 8 µg/mL (≈ 31.2 µM).

`Cc1ccc(C2CC(c3ccccc3O)=NN2C(N)=S)cc1` (stereo not given) showed an MIC90 [1] of 8 µg/mL (≈ 25.7 µM), an MIC90 [2] of 8 µg/mL (≈ 25.7 µM) and an MIC90 [3] of over 256 µg/mL. For the same compound, the MIC90 [4] was 128 µg/mL (≈ 411 µM).

`COc1ccc(C2CC(c3ccccc3O)=NN2C(N)=S)cc1` (stereo not given) gave an MIC90 [1] of 64 µg/mL (≈ 195 µM), an MIC90 [2] of over 256 µg/mL and an MIC90 [3] of over 256 µg/mL. For the same compound, the MIC90 [4] was 128 µg/mL (≈ 391 µM).
